According to PubChem BioAssay (NCI):
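Five concentrations, 48 hours, 96-well plates. TGI marks complete inhibition of growth.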

Key:
Test in all cases: growth of human tumour cells (NCI), 48 h
[1] = tested on: BT-549 breast
[2] = tested on: HCT-15 colon
[3] = tested on: KM12 colon
[4] = tested on: M14 melanoma
[5] = tested on: MDA-MB-231 breast
[6] = tested on: MOLT-4 leukemia
[7] = tested on: OVCAR-4 ovarian
[8] = tested on: PC-3 prostate
[9] = tested on: RPMI-8226 leukemia
[10] = tested on: SK-MEL-2 melanoma

| Structure (SMILES) | TGI [1] [µM] | TGI [2] [µM] | TGI [3] [µM] | TGI [4] [µM] | TGI [5] [µM] | TGI [6] [µM] | TGI [7] [µM] | TGI [8] [µM] | TGI [9] [µM] | TGI [10] [µM] |
| --- | --- | --- | --- | --- | --- | --- | --- | --- | --- | --- |
| COC(=O)C1=C(C(=O)OC)C2CCC1CC2=O (centres undefined) | > 100 | > 100 | > 100 | > 100 | > 100 | > 100 | > 100 | > 100 | > 100 | > 100 |
| O=C1CSC2(CC(/C=C/c3ccccc3[N+](=O)[O-])=NN2c2cccc(S(=O)(=O)O)c2)N1c1nc2ccccc2s1 (centres undefined) | 33.1 | 35 | 27 | 60.7 | 32 | 52.4 | 35.3 | 35.4 | 43.5 | 35.4 |
| c1ccc2c(CCNC3=NCCO3)cccc2c1 |  | > 10 | > 10 | > 10 | > 10 | > 10 | > 10 | > 10 | > 10 | > 10 |
| COc1ccc(OC)c2c1-c1nnnn1CCC2(C)C | > 100 | > 100 | > 100 | > 100 | > 100 | > 100 | > 100 | > 100 | > 100 | > 100 |
| C=CCOC1=C(OC(C)=O)C(C2COC(C)(C)O2)OC1=O (centres undefined) | 60.1 | 29.8 | 44.3 | 53.8 | 34.5 | 43.8 | 45.9 | > 100 | 61 | > 100 |
| Oc1ccccc1/C=N/N1C(=S)N(c2ccccc2)C(=Nc2ccccc2)C1=Nc1ccccc1 |  | > 100 | > 100 | 28.7 | 24.1 | > 89.5 | 15.2 | 47.2 | > 72.8 | 42.9 |
| COc1ccc2oc(=O)c(-c3nc4ccccc4s3)cc2c1 | > 100 | > 100 | > 100 | > 58.3 | 53.2 | > 100 | 53.6 | > 100 | > 100 | > 100 |
| CCN(CC)C(=O)N1CN(c2ccccc2)C2(CCN(CCCC3(c4ccc(F)cc4)OCCO3)CC2)C1=O | 28.9 | 32.3 | 31.1 | > 100 |  | 34.9 | > 100 | 34.9 | 30.1 | 33 |
| Cc1cn(C2CC(/[N+]([O-])=N\Nc3ccc([N+](=O)[O-])cc3)C(CO)O2)c(=O)[nH]c1=O (centres undefined) | > 100 | > 100 | > 100 | > 100 | > 100 | > 100 |  | > 100 | > 100 |  |
| N#C[C@H](c1nc2ccccc2[nH]1)c1nc2ccccc2nc1Cl | > 47.8 | > 39.9 | 17.1 | > 50.3 | 35.3 | 16.8 | > 53.9 | > 52.1 | 36.7 | > 59.1 |
| O=C1N(c2ccccc2)N=C2c3ccncc3C3=NN(c4ccccc4)C(=O)C123 (centres undefined) | > 100 | > 100 | > 100 | > 100 | > 100 | > 100 | > 100 | > 100 | > 100 | > 100 |
| C=C(C)[C@H]1C=C[C@@H](OC(C)=O)[C@@]2(COC(C)=O)[C@H](OC(=O)CCC)[C@H]3[C@@H](OC(C)=O)[C@@H](C)C[C@]3(O)C(=O)[C@@](C)(OC(C)=O)[C@H]12 | > 100 | > 100 | > 100 | > 100 | > 100 | > 100 | > 100 | > 100 | 66.7 | > 100 |
| CC(=O)Nc1ccc(C(=O)NN2C(=O)C(Cl)C2/C=C/c2ccccc2)cc1 (centres undefined) |  |  | > 100 |  |  | > 100 |  |  | > 100 | > 100 |
| COc1ccc(/C=C2\NC(=S)N(CN3CCOCC3)C2=O)cc1 |  | > 100 | > 100 | > 100 | > 100 | > 100 | > 100 | > 100 | > 100 | > 100 |
| O=C1C=C(NCCc2ccc(O)cc2)C(=O)C=C1NCCc1ccc(O)cc1 | > 100 | > 100 | > 100 |  | > 100 | > 100 | > 100 | > 100 | > 100 | > 100 |
| ClC1(Cl)C2CCOC21n1cnc2ccccc21 (centres undefined) | > 100 | > 100 | > 100 | > 100 | > 100 | > 100 | > 100 | > 100 | > 100 | > 100 |
| CC(C)N=C(NC#N)NS(=O)(=O)c1cnccc1NC1CCCCCCC1 | > 100 | > 100 | > 100 | > 100 | > 100 | > 100 | > 100 | > 100 | > 100 | > 100 |
| Nc1[nH]nc2c1Cc1c(n(Cc3ccc(Cl)cc3)c3ccccc13)C(=O)N2 | 36.6 | 16.8 |  | 26 | 30.6 | 29.3 | 32 | 23.5 |  | 34.3 |
| C[C@H](N)C(=O)Nc1ccc(-c2nc3ccccc3s2)cc1Cl | 36 | 62.4 | 33.6 | 19 |  | 40 |  | 27.3 |  | 30.5 |
| O=C(O)c1cc2sc(C(=O)O)cc2s1 |  | > 100 | > 100 | > 100 |  | > 100 | > 100 |  | > 100 |  |
| CCN(CC)C(=O)CCNC(C)Cc1c[nH]c2ccccc12 (centres undefined) |  | > 100 | > 100 | > 100 | > 100 | > 100 | > 100 | > 100 | > 100 | > 100 |
| CC1(C)C/C=C\CCC(O)C(O)CCC(C)(C)C1=O (centres undefined) | > 100 | > 100 | > 100 |  | > 100 | > 100 | > 100 | > 100 | > 100 | > 100 |
| Cc1cccc2c1CC1(Cc3c(C)cccc3C1=O)C2=O |  | > 100 |  | > 100 | > 100 | > 100 | > 100 | > 100 | > 100 | > 100 |
